Assay results published in US8058258B2, “Methods for cancer therapy and stem cell modulation” (Agency for Science, Technology and Research, priority 2006, dated 2011).
Where a SMILES comes first, the peptide text is derived from it. [ ]: non-standard residue; d: D form. The star is where a group is joined. Nle = CCCC[C@H](N)C(=O)O; Nva = CCC[C@H](N)C(=O)O; Cbz = O=C(OCc1ccccc1)*

Assays:
Type in all cases: cell-based, human
[1] = tested on: EZH2 and SUZ12 protein levels in MCF-7 cells; experiment: Proteosome inhibitor rescue of 3-deazaneplanocin-induced PRC2 depletion (Western blot); details: 3-deazaneplanocin 18 h then MG132 (5 μM), LLNL (50 μM) or MG115 (20 μM) for 8 h
Method: FIG. 1C depicts the effect of 3-deazaneplanocin in the presence of proteosome inhibitors on EZH2 and SUZ12 protein levels. MCF-7 cells were treated with 3-deazaneplanocin for 18 h, followed by the addition of proteosome inhibitor MG132 (5 μM), LLNL (50 μM), MG115 (20 μM) […] for 8 h. Cells were harvested for Western blot analysis of EZH2 and SUZ12.
Cell pellets were first lysed in RadioImmuno Precipitation Assay (RIPA) buffer, consisting of an aqueous solution of 25 mM Tris-HCl pH 7.6, 150 mM NaCl, 1% Nonidet-P 40 (NP-40), 1% sodium deoxycholate and 0.1% sodium dodecylsulfate (SDS), before further sonicated using a tissue homogeniser to release all the proteins. Equal amounts of protein were separated on SDS-polyacrylamide gels and transferred to polyvinylidene difluoride (PVDF) membranes. The blots were probed with antibodies against: EED (07-368), SUZ12 (07-379), SUV39H1 (07-550), BMI1 (05-637), tri-methylated H3-K27 (07-449), tri-methylated H3-K9 (07-442) and Acetyl-Histone H3 (06-599), and were purchased from Upstate. EZH2 (AC22) and Histone H3 (3H1) were from Cell Signaling. Antibodies against DNA methyl-transferases DNMT1 and DNMT3B were purchased from Alexis Biochemicals.
It has previously been reported that the stability of PRC2 proteins is regulated through proteosome-mediated mechanism. It was therefore tested whether the depletion of PRC2 proteins by 3-deazaneplanocin results from the protein degradation. MCF-7 cells were treated with 3-deazaneplanocin in the presence or absence of three individual proteosome inhibitors MG132, LLNL, and MG115 to test if these treatments would rescue 3-deazaneplanocin-induced PRC2 depletion.

MCF-7 cells = experiment: Microarray gene expression analysis (Illumina BeadChip) in MCF-7 cells
Method: (§1) Cells were maintained in DMEM supplemented with 10% fetal bovine serum with glutamine, penicillin, and streptomycin. For drug treatment, cells were seeded the day before the drug treatment. Cells were treated with 5 μM 3-Deazaneplanocin A or 2 μM 5-aza-2′-deoxycytidine (5-AzaC; Sigma) for 72 hours and trichostatin A (TSA; Sigma) at 100 nM for 24 hours. For co-treatment of cells with 5-AzaC and TSA, 5-Aza was added for 48 hours and followed by TSA for 24 hours.
The Smartpool siRNA duplexes of selected PRC2 targets and the non-targeting control were purchased from Dharmacon (Lafayett, Colo.). […] Cells were transfected with 50 nM final concentration of siRNA duplexes using Lipofectamine 2000 (Invitrogen) following the manufacturer's instructions.
Total RNA was isolated from cell lines using Trizol (Invitrogen) and was converted to cDNA using an RNA Amplification kit (Ambion). The microarray hybridisation was performed using the Illumina Gene Expression BeadChip (Illumina) and data analysis was performed using GeneSpring software from Agilent Technologies.
The effects on gene expression were analysed using an Illumina Gene Expression BeadChip. […] To be inclusive for the subsequent analysis, all 1402 genes were considered to be potential PRC2 target genes.
To identify the PRC2 targets specifically repressed in breast cancer cells, the expression profiles of the 140 putative PRC2 target genes in MCF-7 cells and MCF10A cells were compared by gene clustering analysis (FIG. 4C).

[2] = tested on: PRC2 target genes TGFBI, KRT17, FBXO32, ANXA8, DLX2; experiment: Real-time RT-PCR of representative PRC2 targets in MCF-7 cells
Method: I: MCF-7 cells were untreated or treated with 3-deazaneplanocin (DZNep), 5-azacytidine (5-AzaC) or a combination of 5-azacytidine and trichostatin A (AZA+TSA), and RNA was isolated for gene expression analysis.
as §1
Total RNA was isolated from cell lines using Trizol (Invitrogen) and was converted to cDNA using an RNA Amplification kit (Ambion). […] Quantitative real-time PCR was performed on a PRISM 7900 sequenced detector (Applied Biosystems) using TaqMan probes (Applied Biosystems). Samples were normalized to the levels of 18S ribosomal RNA.
The array results were further confirmed by real-time RT-PCR for representative PRC2 targets.

CCCC[C@@H](C=O)NC(=O)[C@H](CC(C)C)NC(=O)[C@H](CC(C)C)NC(C)=O [LLNL] (Ac-Leu-Leu-[Nle]-aldehyde)
downregulation of EZH2 and SUZ12 protein levels in response to 3-deazaneplanocin [1]: prevented the downregulation

CCC[C@@H](C=O)NC(=O)[C@H](CC(C)C)NC(=O)[C@H](CC(C)C)NC(=O)OCc1ccccc1 [MG115] (Cbz-Leu-Leu-[Nva]-aldehyde)
downregulation of EZH2 and SUZ12 protein levels in response to 3-deazaneplanocin [1]: prevented the downregulation

CC(C)C[C@@H](C=O)NC(=O)[C@H](CC(C)C)NC(=O)[C@H](CC(C)C)NC(=O)OCc1ccccc1 [MG132] (Cbz-Leu-Leu-Leu-aldehyde)
downregulation of EZH2 and SUZ12 protein levels in response to 3-deazaneplanocin [1]: prevented the downregulation

Nc1ncn([C@H]2C[C@H](O)[C@@H](CO)O2)c(=O)n1 [5-AzaC, 5-aza-2′-deoxycytidine, reference compound]
reactivation of the 140 PRC2 targets in general, in comparison with 3-deazaneplanocin (MCF-7 cells; array, 5-AzaC 2 μM, TSA 100 nM): did not result in the significant reactivation | induction of TGFBI, KRT17 and FBX032 (real-time RT-PCR) [2]: not

B1: SUZ12 siRNA: siRNA targeting SUZ12 mRNA; stem-loop RNA from oligonucleotides SEQ ID NO: 1 and 2 (nucleic acid)
chain 1: GATCCCCGTCGCAACGGACCAGTTAATTCAAGAGATTAACTGGTCCGTTGCGACTTTTTGGAAA
chain 2: TCGATTTCCAAAAAGTCGCAACGGACCAGTTGATCTCTTGAATTAACTGGTCCGTTGCGACGGG
modifications: expressed or natural sequence; the letters are possibly those of the target site
number of genes upregulated ≧2-fold after siRNA treatment (MCF-7 cells; siRNA knockdown of PRC2 component): 572 genes
